Consider 8 molecules from patent US20120121591A1 (priority 2009, published 2012).

SMILES strings stand for the structures.

Holding throughout (assay type): cell-based
For one assay, the target named is hKv1.3 (Homo sapiens, UniProt P22001). The assay is described as follows: cell-based. The settings on record: Kv1.3 (IWQ) IC50 (nM, Avg).
The test system of assay [1] is IL-2 secretion from T cells in human whole blood. The settings on record: read-out: WB (IL-2) IC50 (nM, Avg).
For assay [2], the system named is IFN-g secretion from T cells in human whole blood. The following applies: read-out: WB (IFNg) IC50 (nM, Avg).

Sequence of hKv1.3 (P22001 whole entry): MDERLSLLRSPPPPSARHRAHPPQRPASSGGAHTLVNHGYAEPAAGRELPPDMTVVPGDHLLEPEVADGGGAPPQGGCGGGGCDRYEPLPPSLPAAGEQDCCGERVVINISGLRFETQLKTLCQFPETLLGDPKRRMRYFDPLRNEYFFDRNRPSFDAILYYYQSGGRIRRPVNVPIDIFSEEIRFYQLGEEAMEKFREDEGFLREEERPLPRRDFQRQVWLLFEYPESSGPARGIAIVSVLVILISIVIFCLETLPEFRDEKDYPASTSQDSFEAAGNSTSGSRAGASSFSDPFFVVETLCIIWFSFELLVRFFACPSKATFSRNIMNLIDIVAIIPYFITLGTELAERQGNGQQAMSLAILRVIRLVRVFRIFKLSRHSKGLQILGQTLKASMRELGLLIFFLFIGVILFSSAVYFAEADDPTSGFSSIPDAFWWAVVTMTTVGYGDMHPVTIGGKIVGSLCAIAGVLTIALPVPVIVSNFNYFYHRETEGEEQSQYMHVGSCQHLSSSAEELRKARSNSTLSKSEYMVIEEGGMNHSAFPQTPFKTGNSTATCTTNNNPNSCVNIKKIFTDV

Consider `CC[C@H](C)[C@@H]1NC(=O)[C@@H](NC(=O)[C@H](CO)NC(=O)[C@@H](N)CCCNC(=N)N)CSSC[C@@H](C(=O)N[C@@H](C)C(=O)O)NC(=O)[C@H]([C@@H](C)O)NC(=O)CNC(=O)[C@@H]2CSSC[C@@H]3NC(=O)[C@H](CCCCN)NC(=O)[C@H](Cc4ccccc4)NC(=O)[C@H](C)NC(=O)[C@H]([C@@H](C)O)NC(=O)[C@H](CSSC[C@H](NC(=O)[C@H](Cc4ccccc4)NC(=O)[C@H](CO)NC(=O)[C@H](CC(C)C)NC(=O)[C@H](CCCNC(=N)N)NC(=O)[C@H](Cc4ccc(O)cc4)NC(=O)[C@H](CCCCN)NC(=O)[C@H](CCC(N)=O)NC(=O)[C@H](CO)NC(=O)[C@H](Cc4c[nH]cn4)NC(=O)[C@H](CCCCN)NC3=O)C(=O)N[C@@H](CCCNC(=N)N)C(=O)N[C@@H](CCCCN)C(=O)N[C@@H]([C@@H](C)O)C(=O)N2)NC(=O)[C@H](CCCNC(=N)N)NC(=O)[C@H](CO)NC(=O)[C@H](CCCCN)NC(=O)[C@@H]2CCCN2C(=O)[C@H]([C@@H](C)CC)NC(=O)[C@H]([C@@H](C)O)NC(=O)[C@H](CC(=O)O)NC1=O` [[Lys16,Gln21]ShK-Ala], for which the IC50 is 4.01 nM at hKv1.3, 0.168 nM in assay [1] and 0.206 nM in assay [2].

As for `CCCC[C@@H]1NC(=O)[C@H](CO)NC(=O)[C@H](Cc2c[nH]cn2)NC(=O)[C@H](CCC(=O)O)NC(=O)[C@@H]2CSSC[C@@H]3NC(=O)[C@H]([C@@H](C)O)NC(=O)[C@H](CCCCN)NC(=O)[C@H](CCCNC(=N)N)NC(=O)[C@H](CSSC[C@H](NC(=O)[C@H](CCCNC(=N)N)NC(=O)[C@H](CO)NC(=O)[C@H](CCCCN)NC(=O)[C@@H]4CCCN4C(=O)[C@H]([C@@H](C)CC)NC(=O)[C@H]([C@@H](C)O)NC(=O)[C@H](CC(=O)O)NC(=O)[C@H]([C@@H](C)CC)NC(=O)[C@@H](NC(=O)[C@H](CO)NC(=O)[C@@H](N)CCCNC(=N)N)CSSC[C@@H](C(N)=O)NC(=O)[C@H]([C@@H](C)O)NC(=O)CNC3=O)C(=O)N[C@@H]([C@@H](C)O)C(=O)N[C@@H](C)C(=O)N[C@@H](Cc3ccccc3)C(=O)N[C@@H](CCCCN)C(=O)N2)NC(=O)[C@H](Cc2ccccc2)NC(=O)[C@H](CO)NC(=O)[C@H](CC(C)C)NC(=O)[C@H](CCCNC(=N)N)NC(=O)[C@H](Cc2ccc(O)cc2)NC(=O)[C@H](CCCCN)NC1=O` [[Lys16,Glu18,Nle21]ShK-amide], the IC50 at hKv1.3 came out at 0.28 nM; in assay [1], 0.477 nM; in assay [2] it was 0.929 nM.

`CCCC[C@@H]1NC(=O)[C@H](CO)NC(=O)[C@H](Cc2c[nH]cn2)NC(=O)[C@H](CCCCN)NC(=O)[C@@H]2CSSC[C@@H]3NC(=O)[C@H]([C@@H](C)O)NC(=O)[C@H](CCCCN)NC(=O)[C@H](CCCNC(=N)N)NC(=O)[C@H](CSSC[C@H](NC(=O)[C@H](CCCNC(=N)N)NC(=O)[C@H](CO)NC(=O)[C@H](CCCCN)NC(=O)[C@@H]4CCCN4C(=O)[C@H]([C@@H](C)CC)NC(=O)[C@H]([C@@H](C)O)NC(=O)[C@H](CC(=O)O)NC(=O)[C@H]([C@@H](C)CC)NC(=O)[C@@H](NC(=O)[C@H](CO)NC(=O)[C@@H](N)CCCNC(=N)N)CSSC[C@@H](C(=O)N[C@@H](C)C(=O)O)NC(=O)[C@H]([C@@H](C)O)NC(=O)CNC3=O)C(=O)N[C@@H]([C@@H](C)O)C(=O)N[C@@H](C)C(=O)N[C@@H](Cc3ccccc3)C(=O)N[C@@H](CCCCN)C(=O)N2)NC(=O)[C@H](Cc2ccccc2)NC(=O)[C@H](CO)NC(=O)[C@H](CC(C)C)NC(=O)[C@H](CCCNC(=N)N)NC(=O)[C@H](Cc2ccc(O)cc2)NC(=O)[C@H](CCCCN)NC1=O` [[Lys16,N1e21]ShK-Ala]: the IC50 against hKv1.3 was determined as 33.3 nM; in assay [1], 0.305 nM; in assay [2], 0.515 nM.

In the case of `CCCC[C@@H]1NC(=O)[C@H](CO)NC(=O)[C@H](Cc2c[nH]cn2)NC(=O)[C@H](CCCCN)NC(=O)[C@@H]2CSSC[C@@H]3NC(=O)[C@H]([C@@H](C)O)NC(=O)[C@H](CCCCN)NC(=O)[C@H](CCCNC(=N)N)NC(=O)[C@H](CSSC[C@H](NC(=O)[C@H](CCCNC(=N)N)NC(=O)[C@H](CO)NC(=O)[C@H](CCCCN)NC(=O)[C@@H]4CCCN4C(=O)[C@H]([C@@H](C)CC)NC(=O)[C@H]([C@@H](C)O)NC(=O)[C@H](CC(=O)O)NC(=O)[C@H]([C@@H](C)CC)NC(=O)[C@@H](NC(=O)[C@H](CO)NC(=O)[C@@H](N)CCCNC(=N)N)CSSC[C@@H](C(=O)N[C@@H](CCC(=O)O)C(=O)O)NC(=O)[C@H]([C@@H](C)O)NC(=O)CNC3=O)C(=O)N[C@@H]([C@@H](C)O)C(=O)N[C@@H](C)C(=O)N[C@@H](Cc3ccccc3)C(=O)N[C@@H](CCCCN)C(=O)N2)NC(=O)[C@H](Cc2ccccc2)NC(=O)[C@H](CO)NC(=O)[C@H](CC(C)C)NC(=O)[C@H](CCCNC(=N)N)NC(=O)[C@H](Cc2ccc(O)cc2)NC(=O)[C@H](CCCCN)NC1=O` [[Lys16,N1e21]ShK-Glu], the IC50 stood at 22.5 nM against hKv1.3, 0.386 nM in assay [1] and 0.621 nM in assay [2].

Consider `CCCC[C@@H]1NC(=O)[C@H](CO)NC(=O)[C@H](Cc2c[nH]cn2)NC(=O)[C@H](CCCCN)NC(=O)[C@@H]2CSSC[C@@H]3NC(=O)[C@H]([C@@H](C)O)NC(=O)[C@H](CCCCN)NC(=O)[C@H](CCCNC(=N)N)NC(=O)[C@H](CSSC[C@H](NC(=O)[C@H](CCCNC(=N)N)NC(=O)[C@H](CO)NC(=O)[C@H](CCCCN)NC(=O)[C@@H]4CCCN4C(=O)[C@H]([C@@H](C)CC)NC(=O)[C@H]([C@@H](C)O)NC(=O)[C@H](CC(=O)O)NC(=O)[C@H]([C@@H](C)CC)NC(=O)[C@@H](NC(=O)[C@H](CO)NC(=O)[C@@H](N)CCCNC(=N)N)CSSC[C@@H](C(=O)N[C@@H](Cc4ccc(O)cc4)C(=O)O)NC(=O)[C@H]([C@@H](C)O)NC(=O)CNC3=O)C(=O)N[C@@H]([C@@H](C)O)C(=O)N[C@@H](C)C(=O)N[C@@H](Cc3ccccc3)C(=O)N[C@@H](CCCCN)C(=O)N2)NC(=O)[C@H](Cc2ccccc2)NC(=O)[C@H](CO)NC(=O)[C@H](CC(C)C)NC(=O)[C@H](CCCNC(=N)N)NC(=O)[C@H](Cc2ccc(O)cc2)NC(=O)[C@H](CCCCN)NC1=O` [[Lys16,N1e21]ShK-Tyr], for which the results for the IC50 (against hKv1.3; in assay [1]; in assay [2]) were 109 nM, 0.418 nM and 0.485 nM, respectively.

In the case of `CCCC[C@@H]1NC(=O)[C@H](CO)NC(=O)[C@H](Cc2c[nH]cn2)NC(=O)[C@H](CCCCN)NC(=O)[C@@H]2CSSC[C@@H]3NC(=O)[C@H]([C@@H](C)O)NC(=O)[C@H](CCCCN)NC(=O)[C@H](CCCNC(=N)N)NC(=O)[C@H](CSSC[C@H](NC(=O)[C@H](CCCNC(=N)N)NC(=O)[C@H](CO)NC(=O)[C@H](CCCCN)NC(=O)[C@@H]4CCCN4C(=O)[C@H]([C@@H](C)CC)NC(=O)[C@H]([C@@H](C)O)NC(=O)[C@H](CC(=O)O)NC(=O)[C@H]([C@@H](C)CC)NC(=O)[C@@H](NC(=O)[C@H](CO)NC(=O)[C@@H](N)CCCNC(=N)N)CSSC[C@@H](C(=O)O)NC(=O)[C@H]([C@@H](C)O)NC(=O)CNC3=O)C(=O)N[C@@H]([C@@H](C)O)C(=O)N[C@@H](C)C(=O)N[C@@H](Cc3ccccc3)C(=O)N[C@@H](CCCCN)C(=O)N2)NC(=O)[C@H](Cc2ccccc2)NC(=O)[C@H](CO)NC(=O)[C@H](CC(C)C)NC(=O)[C@H](CCCNC(=N)N)NC(=O)[C@H](Cc2ccc(O)cc2)NC(=O)[C@H](CCCCN)NC1=O` [[Lys16,N1e21]ShK], the IC50 against hKv1.3 was 0.13 nM; in assay [1], 0.249 nM; in assay [2], 0.848 nM.

For the molecule `CCC[C@@H]1NC(=O)[C@H](CO)NC(=O)[C@H](Cc2c[nH]cn2)NC(=O)[C@H](CCCCN)NC(=O)[C@@H]2CSSC[C@@H]3NC(=O)[C@H]([C@@H](C)O)NC(=O)[C@H](CCCCN)NC(=O)[C@H](CCCNC(=N)N)NC(=O)[C@H](CSSC[C@H](NC(=O)[C@H](CCCNC(=N)N)NC(=O)[C@H](CO)NC(=O)[C@H](CCCCN)NC(=O)[C@@H]4CCCN4C(=O)[C@H]([C@@H](C)CC)NC(=O)[C@H]([C@@H](C)O)NC(=O)[C@H](CC(=O)O)NC(=O)[C@H]([C@@H](C)CC)NC(=O)[C@@H](NC(=O)[C@H](CO)NC(=O)[C@@H](N)CCCNC(=N)N)CSSC[C@@H](C(=O)NC(C)(C)C(N)=O)NC(=O)[C@H]([C@@H](C)O)NC(=O)CNC3=O)C(=O)N[C@@H]([C@@H](C)O)C(=O)N[C@@H](C)C(=O)N[C@@H](Cc3ccccc3)C(=O)N[C@@H](CCCCN)C(=O)N2)NC(=O)[C@H](Cc2ccccc2)NC(=O)[C@H](CO)NC(=O)[C@H](CC(C)C)NC(=O)[C@H](CCCNC(=N)N)NC(=O)[C@H](Cc2ccc(O)cc2)NC(=O)[C@H](CCCCN)NC1=O` [[Lys16,Nva21]ShK-Aib-amide], the 50% inhibitory concentration (IC50) at hKv1.3 is 0.03 nM; in assay [1], 0.483 nM; in assay [2] it was 0.722 nM.

Turning to `CCC[C@@H]1NC(=O)[C@H](CO)NC(=O)[C@H](Cc2c[nH]cn2)NC(=O)[C@H](CCCCN)NC(=O)[C@@H]2CSSC[C@@H]3NC(=O)[C@H]([C@@H](C)O)NC(=O)[C@H](CCCCN)NC(=O)[C@H](CCCNC(=N)N)NC(=O)[C@H](CSSC[C@H](NC(=O)[C@H](CCCNC(=N)N)NC(=O)[C@H](CO)NC(=O)[C@H](CCCCN)NC(=O)[C@@H]4CCCN4C(=O)[C@H]([C@@H](C)CC)NC(=O)[C@H]([C@@H](C)O)NC(=O)[C@H](CC(=O)O)NC(=O)[C@H]([C@@H](C)CC)NC(=O)[C@@H](NC(=O)[C@H](CO)NC(=O)[C@@H](N)CCCNC(=N)N)CSSC[C@@H](C(=O)N[C@@H](C)C(N)=O)NC(=O)[C@H]([C@@H](C)O)NC(=O)CNC3=O)C(=O)N[C@@H]([C@@H](C)O)C(=O)N[C@@H](C)C(=O)N[C@@H](Cc3ccccc3)C(=O)N[C@@H](CCCCN)C(=O)N2)NC(=O)[C@H](Cc2ccccc2)NC(=O)[C@H](CO)NC(=O)[C@H](CC(C)C)NC(=O)[C@H](CCCNC(=N)N)NC(=O)[C@H](Cc2ccc(O)cc2)NC(=O)[C@H](CCCCN)NC1=O` [[Lys16,Nva21]ShK-Ala-amide], the IC50 against hKv1.3 was determined as 0.08 nM; in assay [1], 0.431 nM; in assay [2], 1.46 nM.

As a reminder, the IC50 is the concentration needed to halve the response being measured.
